Laboratory results reported in patent US20030139469A1, “Use of inhibitors of soluble epoxide hydrolase to inhibit vascular smooth muscle cell proliferation” (THE REGENTS OF THE UNIVERSITY OF CALIFORNIA, priority 2002, published 2003).

Assays:
ERK42/44 phosphorylation = test: Western blot phospho-MAPK in VSM cells; assay type: cell-based, human; conditions: 10 μM, 4 h after PDGF-BB, FIG. 6
Method: Human VSM cells were grown to 80-90% confluence and serum-starved as in FIG. 1. Four hours after stimulation with PDGF-BB (30 ng/ml) in the presence or absence of CDU (10 μM), the cells were lysed and equal protein quantities were electrophoresed and immunoblotted with phospho-MAPK antibody. Data shown are representative of three independent experiments Western Blots. After treatment with appropriate compounds for the indicated times, cells were lysed, protein concentrations were determined by the Lowry method, and equal protein quantities were electrophoresed and Western blotted.

[1] = test system: HTB-30 breast cancer cells; test: MTT assay HTB-30; assay type: cell-based; conditions: up to 40 μM
human VSM cells [2] = test: trypan blue exclusion, VSM cells; assay type: cell-based; conditions: 12 μM
Method: (§1) Evaluation of Cell Membrane Integrity and Toxicity. To evaluate the toxicity of compounds, as indicated by cellular trypan blue permeability, cells were plated in 35 mm dishes. After two days, the medium in the dish was replaced with fresh medium supplemented with the compound of interest or vehicle. At the indicated time post-treatment, the supernatant was removed and adherent cells were removed using trypsin. After dislodging the adherent cells, the cell suspension was pooled with the supernatant and centrifuged. The resulting cell pellet was resuspended and a trypan blue solution (0.4% in normal saline) was added to the aliquot. After incubating for approximately 5 minutes, the sample was evaluated by light microscopy. To evaluate lactate dehydrogenase (LDH) release, cells were harvested and plated onto 24 well plates and serum starved for one to two days. Test compounds were added and after 65 hours, media was removed for measurement of LDH activity. LDH activity was determined by NADH oxidation using Sigma Tox-7 in vitro toxicology kit and reported as the amount of LDH activity in the media.

[3] = biological target: soluble epoxide hydrolase (sEH); conditions: cited from earlier work
human VSM cells [4] = test: LDH release into media; assay type: cell-based; conditions: PDGF-BB or 10% serum, CDU 10 and 20 μM, FIG. 4b
Method: as §1, with “FIG. 4b. Human VSM cells were grown continuously in the presence of either 10% serum or PDGF-BB (30 ng/ml). Upon achieving confluency, the cells were incubated with CDU at the indicated concentrations and LDH release into the media was measured as described in Example 1. Evaluation” for “Evaluation”

human VSM cells [5] = test: direct counting of trypsinized VSM cells by hemocytometer; assay type: cell-based; conditions: 12 μM, 10% serum, FIG. 1c
Method: FIG. 1c. CDU (12 μM) or an equal volume of DMSO vehicle (as a control) was added concomitantly with 10% serum and the cells were counted by hemocytometer after trypsinization. Proliferation Assays. [^3H]thymidine incorporation assays were performed. To evaluate proliferation of suspension cells, cells were resuspended at 2×10^5 cells/mL in culture medium and the medium supplemented with the compound of interest or the corresponding vehicle. At the indicated times, cell density was estimated using light microscopy and a hemocytometer. To directly evaluate the proliferation of adherent cells, 2×10^4 cells were plated in a 35 mm culture dish and allowed to adhere overnight. The medium was then supplemented with the compound of interest or the corresponding vehicle. At the indicated times, the number of cells in the plate was calculated by subjecting the cells to trypsinization and the cell density quantitated by light microscopy using a hemocytometer.

HL-60 cells = test: HL-60 cell proliferation (hemocytometer count); assay type: cell-based, human; conditions: 12 μM, 24 and 48 h, FIG. 2
Method: Human promyelocytic HL-60 were incubated in serum-containing medium and CDU (12 μM) or DMSO vehicle was added at time zero. At 24 and 48 h after CDU addition the cells were counted using a hemocytometer. Error bars represent SD. Data shown are representative of two independent experiments. Cell Culture. Human aortic smooth muscle cells were obtained from Clonetics (San Diego Calif.) at passage 3 and were maintained in MCBD 131 media supplemented with 2.5% FBS, 5 mg/L bovine insulin, 2 ug/L human recombinant EGF, 1 ug/L human recombinant PDGF-BB (“PDGF” is platelet derived growth factor, which is composed of a dimer of two chains, the A chain and the B chain, “PDGF-BB is a 24.3 kD homodimer of two B chains), 100 u/ml of penicillin, 100 u/ml streptomycin, and 2.5 ug/ml amphotericin B. The cells were growth-arrested by placing them in quiescence medium containing MCDB 131 medium, 20 mM HEPES (pH 7.4), 5 mg/ml transferrin, 0.5 mg/ml BSA, 50 U/ml penicillin, 50 U/ml streptomycin, and 2.5 ug/ml amphotericin B. Quiescence medium was changed daily for 1-2 days before each experiment. HL-60 cells were obtained from ATCC or from D. Hyde (UC Davis). […] At the indicated times, the number of cells in the plate was calculated by subjecting the cells to trypsinization and the cell density quantitated by light microscopy using a hemocytometer.

For `CCCCCCCCCCCCNC(=O)NC1CCCCC1` [CDU, 1-cyclohexyl-3-dodecyl urea], the “PDGF-stimulated ERK42/44 phosphorylation” value (ERK42/44 phosphorylation) was “no change”, the “toxicity, MTT assay” value [1] was “no toxicity observed” and the “cells stained blue (trypan blue)” value (human VSM cells [2]; 8 h) was 3.4%. The “cells stained blue (trypan blue)” value (human VSM cells [2]; 24 h) was 3.0%, the Ki [3] was 20 ± 2 nM and the “LDH appearance in the media” value (human VSM cells [4]) was “unchanged”. For the same compound, the “cell proliferation by direct counting of trypsinized cells” value (human VSM cells [5]) was “Inhibition of cell proliferation” and the “proliferation of HL-60 cells” value (HL-60 cells) was “proliferated to a similar extent”.
